≈ marks a conversion by molar mass, not a printed value. Where two headings read alike, the source gives them in different places. Blank lines part the entries; values can stand above or below the compound they belong to.
Assays:
Format in all cases: physicochemical
pKa measurements = experiment: pKa measurements
[1] = Slurry in pH 2.0 buffer, XRPD; conditions: pH 2.0 chloride buffer, RT, 5 days
Protocol: Structure (I) (from Lot B, 30 mg) was suspended in pH 2.0 buffer (chloride buffer, 3 mL) and placed in a shaker at RT. After 1 day, the sample was filtered and analyzed by XRPD. The sample was re-suspended in pH 2.0 buffer (2 mL) and returned to shaking at RT for 4 days. The sample was aliquoted and analyzed by XRPD, before filtration and drying under suction.

[2] = Heating for 24 h in a vacuum tray dryer, XRPD and HPLC
Protocol: A polymorphism study of Structure (I) was performed at 75° C., 100° C., 175° C., and 250° C. About 500 mg of Structure (I) Pattern 3 was heated at 75° C. for 24 h in a vacuum tray dryer (VTD) under reduced pressure. Obtained material after heating at 75° C. was analyzed for purity by HPLC and XPRD analysis. […] Additionally, about 500 mg of Structure (I) was heated at 75° C. for 24 h in a VTD under reduced pressure. After 24 h, material was cooled to 25-30° C. under inert atmosphere and analyzed for purity by HPLC and XRPD.
About 500 mg of Structure (I) was heated at 100° C. for 24 h in a VTD under reduced pressure. Obtained material after heating at 100° C. was analyzed for purity by HPLC and XPRD. […] Additionally, about 500 mg of Structure (I) was heated at 100° C. for 24 h in a VTD under reduced pressure. After 24 h material was cooled to 25-30° C. under inert atmosphere. Obtained material was analyzed for purity by HPLC and XPRD.
Obtained material after heating at 175° C. was analyzed for purity by HPLC and XPRD. […] After 24 h, material was cooled to 25-30° C. under inert atmosphere. Obtained material was analyzed for purity by HPLC and XPRD.
About 500 mg of Structure (I) was heated at 250° C. for 24 h in a VTD. Obtained material after heating at 250° C. was analyzed for purity by HPLC and XPRD.

[3] = Gravimetric solubility measurements from competitive slurry samples; conditions: organic solvent or mixture, thermodynamic from solid, room temperature
Description: In order to determine that Pattern 3 was not simply being dissolved in the solvent systems when the solid was introduced, gravimetric solubility measurements were made using the samples at room temperature. […] There was insufficient solubility at room temperature to dissolve the Pattern 3 present in the competitive slurry experiments.

[4] = Competitive slurries of Pattern 3 and Pattern 11, XRPD; conditions: competitive slurry, solvent and temperature per sample; for XRPD after 7 days: 20 vol
Protocol: A solid mixture of Structure (I) Pattern 3 (from Lot B, 300 mg) and Pattern 11 (Sample 35-1, 300 mg) was mixed for 3 hours using a turbula mixer.
The solid mixture (30 mg) was suspended in solvent (dried with molecular sieves, 600 μL, 20 vol) and either stirred in the fridge, shaken at RT or 55° C. After 7 days, an aliquot of each suspension was analyzed by XRPD. Samples that were still a mixture of forms were placed back into fridge/shakers for a further 10 days and re-analyzed (results shown in Table 36).
Competitive slurry experiments at 55° C., along with one at 5° C., were repeated using a saturated solution as the solvent mixture to minimize dissolution that may have occurred at temperatures other than room temperature.
A saturated solution of THF/Water (9:1) (5 mL) with Structure (I) (from Lot B) was equilibrated at 55° C. overnight in a shaker. The solution was filtered using 0.45 μm nylon filter before use.
A solid mixture of Pattern 3 and Pattern 11 (30 mg) was suspended in the saturated solution (600 μL, 20 vol) and either stirred in the fridge (5° C.) or shaken at 55° C. After 1 day, aliquots of the suspensions were analyzed by XRPD. Both samples were placed back into fridge/shaker. After a total of 11 days, the samples were removed from fridge/shaker. Sample 38-2 was filtered before XRPD, Sample 38-1 was pipetted onto the XRPD holder and allowed to dry before analysis (solid passed through filter).

[5] = Variable temperature XRPD (VT-XRPD); conditions: 250° C.
Description: (§1) XRPD diffractograms were collected on a PANalytical Empyrean diffractometer using Cu Kα radiation (45 kV, 40 mA, λ=1.544398 Å) in reflection geometry. The instrument was fitted with an Anton Paar CHC plus+ stage fitted with graphite/Kapton windows and equipped with air cooling coupled or a low vacuum pump system using an Edwards RV3 pump. A programmable divergence slit (in automatic mode), with a 10 mm fixed incident beam mask, Ni filter and 0.04 rad Soller slits were used on the incident beam. A PIXcel3D detector, placed on the diffracted beam, was fitted with a programmable anti-scatter slit (in automatic mode) and 0.04 rad Soller slits.
For variable temperature (VT-XRPD) experiments the samples were prepared and analyzed in an Anton Paar chromed sample holder. The sample chamber was under ambient atmosphere and a heating/cooling rate of 10° C./min was used with a 2 min isothermal hold before the measurement started. The measurement parameters are as per the standard screening data collection method (detailed above). Measurements were taken at the following temperatures: 25, 80, 170, 250, and 25° C.

XRPD under vacuum = conditions: vacuum released for 30 min, ambient conditions
Description: as §1
For XRPD under vacuum the samples were prepared and analyzed in an Anton Paar chromed sample holder. The sample temperature was kept constant throughout at 25° C. The measurement parameters are as per the standard screening data collection method (detailed above). An initial measurement was taken before the vacuum was initiated and then subsequently at 10 min intervals. Data collection was stopped after three consecutive scans showing no change.

[6] = Drying / standing under ambient conditions, XRPD; conditions: ambient conditions
Protocol: Structure (I) (Sample 28-2, 30 mg, Poorly Crystalline Pattern 3) was wetted with solvent (300 μL, 10 vol) according to Table 30 and put into a shaker at 50° C. for 6 days. The suspensions were isolated using filter cartridges and positive pressure. A XRPD pattern was collected for each sample. […] This characterization is presented and discussed in Examples detailed herein. (see, e.g., FIG. 75)

SMILES: Cc1cc(Nc2cc(N)ncn2)c(=O)n2c1C(=O)NC21CCC2(CC2)CC1 [Structure (I), 6″-((6-aminopyrimidin-4-yl)amino)-8″-methyl-2″H-dispiro[cyclopropane-1, l′-cyclohexane-4′,3″-imidazo[1,5-a]pyridine]-1″,5″-dione]
pKa (pKa measurements; read-out: acidic pKa (acidic center)): 11.5
pKa (pKa measurements; read-out: basic pKa): 4.73
XRPD form after slurry in pH 2.0 buffer [1]: Pattern 1
HPLC purity change after heating at 100° C. ([2]; 100° C., reduced pressure): no change
XRPD form after heating at 100° C. ([2]; 100° C., reduced pressure): remained as Pattern 3
HPLC purity change after heating at 175° C. ([2]; 175° C., reduced pressure): no change
XRPD form after heating at 175° C. ([2]; 175° C., reduced pressure): converted to Pattern 11
XRPD form after heating at 250° C. ([2]; 250° C.): converted to Pattern 11

SMILES: Cc1cc(Nc2cc(N)ncn2)c(=O)n2c1C(=O)NC21CCC2(CC2)CC1 [Pattern 10]
VT-XRPD form at 250° C. [5]: partially converted to Pattern 11
XRPD after vacuum released (XRPD under vacuum): converted back to Pattern 3
form under ambient conditions (XRPD after ambient overnight) [6]: converted back to Pattern 3

More lines, now with the values ahead:

solubility ([3]; THF/Water (9:1)): 8100 µg/mL (≈ 22.1 mM)
XRPD after 7 days [4]: Patterns 3 and 11
XRPD after 17 days [4]: Patterns 3 and 11
SMILES: Cc1cc(Nc2cc(N)ncn2)c(=O)n2c1C(=O)NC21CCC2(CC2)CC1 [Pattern 36-10]

solubility ([3]; IPA/Water (95:5)): 3800 µg/mL (≈ 10.4 mM)
XRPD after 7 days [4]: Patterns 3 and 11
XRPD after 17 days [4]: Patterns 3 and 11
SMILES: Cc1cc(Nc2cc(N)ncn2)c(=O)n2c1C(=O)NC21CCC2(CC2)CC1 [Pattern 36-9]

solubility ([3]; Toluene): 2300 µg/mL (≈ 6.28 mM)
XRPD after 7 days [4]: Patterns 3 and 11
XRPD after 17 days [4]: Patterns 3 and 11
SMILES: Cc1cc(Nc2cc(N)ncn2)c(=O)n2c1C(=O)NC21CCC2(CC2)CC1 [Pattern 36-8]
